Measured values taken from patent US20180193490A1, “Beta Amyloid Staging” (GE HEALTHCARE LIMITED, priority 2015, published 2018).

Target: T1, beta amyloid (Aβ) plaques in the brain (Homo sapiens, UniProt P05067)
T1 construct: from tissue; host or cells: brain of living subjects (cortex and striatum), in vivo PET
Experiment: Provisional SUVR analysis of GE067-026 PET images (Cortex ID, cortex and striatal VOIs)
Type: in vivo
Conditions: for Cases C+S+ by SUVR analysis of cortical and striatal beta amyloid uptake / Cases C+S− by SUVR analysis of cortical and striatal beta amyloid uptake / Cases C−S+ by SUVR analysis of cortical and striatal beta amyloid uptake / Cases C−S− by SUVR analysis of cortical and striatal beta amyloid uptake: SUVRpons thresholds
Experimental: Some work has been performed to assess the quantitative SUVR measures from the GE067-026 cohort.
In an automated SUVR assessment methodology using GE software Cortex ID (J Lilja) PET images were quantitated using separate cortex and striatal VOIs. The SUVRs were determined for the cortical and striatal values using 3 different reference regions; whole cerebellum, cerebellar grey and pons.
Thresholding was determined by multiple methods to identify which method provided the greatest accuracy (See Setting SUVR thresholds)
The thresholds determined by ROC analysis for Phase 3 or above being abnormal gave the best sensitivity and specificity for cortical assessments. A similar approach gave the best sensitivity and specificity for the striatal assessments. Using the whole cerebellum as a reference region or pons as the reference region gave the best sensitivity and specificity (see Table 4).
Combining these thresholds to determine cortical and striatal positivity based upon SUVRpons values gave similar results to those see by BIE assessment. Of 5 C+S− cases 3 […] were Thal phase 3.
SUVR thresholds were set using two methods. • (1) Statistical determination • (2) Receiver operator characteristics
For statically determined thresholds the algorithm depicted in FIG. 1 was applied. Briefly, all cases were identified as negative or positive based on histopathology. For the cortex this was based on the GE067-026 standard of truth^2—abnormal or normal based on any regional Bielschowsky score>1.5=abnormal and all regional scores≤1.5=normal. For the striatum this was based on the identification of “Frequent” plaques by amyloid-β IHC (4G8). The threshold determinations are calculated in the file Cortex ID SUVR thresholds.xlsx. ^2 For the GE067-007 and -026 autopsy trials the primary endpoint was Bielschowsky silver stain (BSS) scores of CERAD based neuritic plaque density. 0=none, 1=sparse, 2=moderate and 3=frequent. Multiple measures were averaged and the arithmetic mean between none/sparse (normal) and moderate/frequent (abnormal=1.5. Any case with a regional BSS score>1.5 was deemed abnormal.
The SUVR means and standard deviations were calculated for normal and abnormal subjects for each of the SUVR measures; Cortex and striatum and for each of the SUVR reference regions. The threshold was determined to be the SUVR value at which the fractional standard deviation is equal between the two population means i.e. when the normal mean plus y times the normal SD is equal to the abnormal mean minus y times the abnormal SD.
A statistically based threshold was determined for abnormal and normal cases (based on histopathology) and applied to cortical and striatal SUVRs separately.
A variant of the above threshold was determined based upon the Thal phases. Thus the threshold for the cortex and striatum was determined between phase 0 and 1, between phase 1 and phase 2 . . . etc. This gave 15 threshold values (5 to discriminate each phase and 1 for each of the 3 reference regions; 15 in total)
This is an empirically determined threshold that by definition identifies the threshold that gives the best sensitivity and specificity.
Receiver operator characteristics analysis determines the sensitivity and specificity given a variable threshold. The most appropriate threshold is then determined by the maximum of the sum of the sensitivity and specificity.

T1 sequence (P05067 672-713 limits assumed): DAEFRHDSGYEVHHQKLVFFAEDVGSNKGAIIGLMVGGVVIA

Cases C+S+ by SUVR analysis of cortical and striatal beta amyloid uptake (Amyloid Thal phase 0): 0
Cases C+S− by SUVR analysis of cortical and striatal beta amyloid uptake (Amyloid Thal phase 0): 0
Cases C−S+ by SUVR analysis of cortical and striatal beta amyloid uptake (Amyloid Thal phase 0): 0
Cases C−S− by SUVR analysis of cortical and striatal beta amyloid uptake (Amyloid Thal phase 0): 7
Cases C+S+ by SUVR analysis of cortical and striatal beta amyloid uptake (Amyloid Thal phase 1): 0
Cases C+S− by SUVR analysis of cortical and striatal beta amyloid uptake (Amyloid Thal phase 1): 0
Cases C−S+ by SUVR analysis of cortical and striatal beta amyloid uptake (Amyloid Thal phase 1): 0
Cases C−S− by SUVR analysis of cortical and striatal beta amyloid uptake (Amyloid Thal phase 1): 8
Cases C+S+ by SUVR analysis of cortical and striatal beta amyloid uptake (Amyloid Thal phase 2): 0
Cases C+S− by SUVR analysis of cortical and striatal beta amyloid uptake (Amyloid Thal phase 2): 0
Cases C−S+ by SUVR analysis of cortical and striatal beta amyloid uptake (Amyloid Thal phase 2): 0
Cases C−S− by SUVR analysis of cortical and striatal beta amyloid uptake (Amyloid Thal phase 2): 5
Cases C+S+ by SUVR analysis of cortical and striatal beta amyloid uptake (Amyloid Thal phase 3): 1
Cases C+S− by SUVR analysis of cortical and striatal beta amyloid uptake (Amyloid Thal phase 3): 3
Cases C−S+ by SUVR analysis of cortical and striatal beta amyloid uptake (Amyloid Thal phase 3): 0
Cases C−S− by SUVR analysis of cortical and striatal beta amyloid uptake (Amyloid Thal phase 3): 8
Cases C+S+ by SUVR analysis of cortical and striatal beta amyloid uptake (Amyloid Thal phase 4): 16
Cases C+S− by SUVR analysis of cortical and striatal beta amyloid uptake (Amyloid Thal phase 4): 1
Cases C−S+ by SUVR analysis of cortical and striatal beta amyloid uptake (Amyloid Thal phase 4): 2
Cases C−S− by SUVR analysis of cortical and striatal beta amyloid uptake (Amyloid Thal phase 4): 3
Cases C+S+ by SUVR analysis of cortical and striatal beta amyloid uptake (Amyloid Thal phase 5): 44
Cases C+S− by SUVR analysis of cortical and striatal beta amyloid uptake (Amyloid Thal phase 5): 1
Cases C−S+ by SUVR analysis of cortical and striatal beta amyloid uptake (Amyloid Thal phase 5): 0
Cases C−S− by SUVR analysis of cortical and striatal beta amyloid uptake (Amyloid Thal phase 5): 1
Sum of sensitivity and specificity (Average over all thresholds, reference region Cer): 163%
Sum of sensitivity and specificity (Average over all thresholds, reference region Pons): 168%
Sum of sensitivity and specificity (Average over all thresholds, reference region Wcer): 168%
Phase 3 cases identified as C+S− between the two methods (BIE and SUVR) (BIE and SUVR combined): 6
Sum of sensitivity and specificity (CTX BSS ROC abnormality threshold, Average of reference regions): 177%
Sum of sensitivity and specificity (CTX BSS ROC abnormality threshold, reference region Cer): 176%
Sum of sensitivity and specificity (CTX BSS ROC abnormality threshold, reference region Pons): 174%
Sum of sensitivity and specificity (CTX BSS ROC abnormality threshold, reference region Wcer): 180%
Sum of sensitivity and specificity (CTX Max Mirra ROC abnormality threshold, Average of reference regions): 170%
Sum of sensitivity and specificity (CTX Max Mirra ROC abnormality threshold, reference region Cer): 170%
Sum of sensitivity and specificity (CTX Max Mirra ROC abnormality threshold, reference region Pons): 167%
Sum of sensitivity and specificity (CTX Max Mirra ROC abnormality threshold, reference region Wcer): 173%
Sum of sensitivity and specificity (CTX Mirra mode ROC abnormality threshold, Average of reference regions): 172%
Sum of sensitivity and specificity (CTX Mirra mode ROC abnormality threshold, reference region Cer): 170%
Sum of sensitivity and specificity (CTX Mirra mode ROC abnormality threshold, reference region Pons): 173%
Sum of sensitivity and specificity (CTX Mirra mode ROC abnormality threshold, reference region Wcer): 174%
Sum of sensitivity and specificity (CTX Phase1 threshold, Average of reference regions): 139%
Sum of sensitivity and specificity (CTX Phase1 threshold, reference region Cer): 142%
Sum of sensitivity and specificity (CTX Phase1 threshold, reference region Pons): 129%
Sum of sensitivity and specificity (CTX Phase1 threshold, reference region Wcer): 145%
Sum of sensitivity and specificity (CTX Phase2 threshold, Average of reference regions): 155%
Sum of sensitivity and specificity (CTX Phase2 threshold, reference region Cer): 153%
Sum of sensitivity and specificity (CTX Phase2 threshold, reference region Pons): 158%
Sum of sensitivity and specificity (CTX Phase2 threshold, reference region Wcer): 152%
Sum of sensitivity and specificity (CTX Phase 3 + ROC abnormality threshold, Average of reference regions): 183%
Sum of sensitivity and specificity (CTX Phase 3 + ROC abnormality threshold, reference region Cer): 180%
Sum of sensitivity and specificity (CTX Phase 3 + ROC abnormality threshold, reference region Pons): 186%
Sum of sensitivity and specificity (CTX Phase 3 + ROC abnormality threshold, reference region Wcer): 182%
Sum of sensitivity and specificity (CTX Phase3 threshold, Average of reference regions): 161%
Sum of sensitivity and specificity (CTX Phase3 threshold, reference region Cer): 153%
Sum of sensitivity and specificity (CTX Phase3 threshold, reference region Pons): 166%
Sum of sensitivity and specificity (CTX Phase3 threshold, reference region Wcer): 166%
Sum of sensitivity and specificity (CTX Phase 4 + ROC abnormality threshold, Average of reference regions): 179%
Sum of sensitivity and specificity (CTX Phase 4 + ROC abnormality threshold, reference region Cer): 176%
Sum of sensitivity and specificity (CTX Phase 4 + ROC abnormality threshold, reference region Pons): 182%
Sum of sensitivity and specificity (CTX Phase 4 + ROC abnormality threshold, reference region Wcer): 180%
Sum of sensitivity and specificity (CTX Phase4 threshold, Average of reference regions): 177%
Sum of sensitivity and specificity (CTX Phase4 threshold, reference region Cer): 173%
Sum of sensitivity and specificity (CTX Phase4 threshold, reference region Pons): 179%
Sum of sensitivity and specificity (CTX Phase4 threshold, reference region Wcer): 179%
Sum of sensitivity and specificity (CTX Phase5 threshold, Average of reference regions): 136%
Sum of sensitivity and specificity (CTX Phase5 threshold, reference region Cer): 132%
Sum of sensitivity and specificity (CTX Phase5 threshold, reference region Pons): 142%
Sum of sensitivity and specificity (CTX Phase5 threshold, reference region Wcer): 133%
Sum of sensitivity and specificity (CTX abnormality statistical threshold, Average of reference regions): 176%
Sum of sensitivity and specificity (CTX abnormality statistical threshold, reference region Cer): 174%
Sum of sensitivity and specificity (CTX abnormality statistical threshold, reference region Pons): 175%
Sum of sensitivity and specificity (CTX abnormality statistical threshold, reference region Wcer): 180%
Sum of sensitivity and specificity (STR Phase1 threshold, Average of reference regions): 144%
Sum of sensitivity and specificity (STR Phase1 threshold, reference region Cer): 135%
Sum of sensitivity and specificity (STR Phase1 threshold, reference region Pons): 147%
Sum of sensitivity and specificity (STR Phase1 threshold, reference region Wcer): 150%
Sum of sensitivity and specificity (STR Phase2 threshold, Average of reference regions): 138%
Sum of sensitivity and specificity (STR Phase2 threshold, reference region Cer): 135%
Sum of sensitivity and specificity (STR Phase2 threshold, reference region Pons): 135%
Sum of sensitivity and specificity (STR Phase2 threshold, reference region Wcer): 144%
Sum of sensitivity and specificity (STR Phase3 threshold, Average of reference regions): 173%
Sum of sensitivity and specificity (STR Phase3 threshold, reference region Cer): 164%
Sum of sensitivity and specificity (STR Phase3 threshold, reference region Pons): 178%
Sum of sensitivity and specificity (STR Phase3 threshold, reference region Wcer): 179%
Sum of sensitivity and specificity (STR Phase4 threshold, Average of reference regions): 183%
Sum of sensitivity and specificity (STR Phase4 threshold, reference region Cer): 180%
Sum of sensitivity and specificity (STR Phase4 threshold, reference region Pons): 186%
Sum of sensitivity and specificity (STR Phase4 threshold, reference region Wcer): 183%
Sum of sensitivity and specificity (STR Phase5 threshold, Average of reference regions): 158%
Sum of sensitivity and specificity (STR Phase5 threshold, reference region Cer): 151%
Sum of sensitivity and specificity (STR Phase5 threshold, reference region Pons): 165%
Sum of sensitivity and specificity (STR Phase5 threshold, reference region Wcer): 157%
Sum of sensitivity and specificity (STR ROC abnormality threshold, Average of reference regions): 187%
Sum of sensitivity and specificity (STR ROC abnormality threshold, reference region Cer): 185%
Sum of sensitivity and specificity (STR ROC abnormality threshold, reference region Pons): 188%
Sum of sensitivity and specificity (STR ROC abnormality threshold, reference region Wcer): 187%
Sum of sensitivity and specificity (STR abnormality statistical threshold, Average of reference regions): 184%
Sum of sensitivity and specificity (STR abnormality statistical threshold, reference region Cer): 182%
Sum of sensitivity and specificity (STR abnormality statistical threshold, reference region Pons): 187%
Sum of sensitivity and specificity (STR abnormality statistical threshold, reference region Wcer): 185%
Share of C+S− cases that were Thal phase 3 (SUVRpons values): 66%
C+S− cases by SUVR thresholds (SUVRpons values, all Thal phases): 5
Thal phase 3 C+S− cases by SUVR analysis in common with those identified by BIE assessment (of the 3 Thal phase 3 C+S− cases by SUVR): two
Structure (SMILES): CNc1ccc(-c2nc3ccc(O)cc3s2)cc1F [Flutemetamol]
